In patent publication US11813306B2, “Cyclic tetramer compounds as proprotein convertase subtilisin/kexin type 9 (PCSK9) inhibitors for the treatment of metabolic disorders” (NOVARTIS AG, priority 2018, dated 2023):

Target: human PCSK9 (Homo sapiens, UniProt Q8NBP7)
Test: PCSK9 ligand binding assay (TR-FRET): interference with binding of human PCSK9 to human LDLR
Details: for IC50: Human PCSK9 Alexa Fluor 647 / Human LDLR extracellular domain-Europium Kryptate; for Max % inhibition: efficacy (Amax), 100% = 1 uM unlabeled human PCSK9, 0% = DMSO
Method: Example 10: PCSK9 Ligand Binding Assay
The PCSK9 binding of the compounds of the disclosure were measured using a time resolved fluorescence resonance energy transfer (TR-FRET) assay. This time resolved fluorescence resonance energy transfer (TR-FRET) assay measures the ability of a compound of the present disclosure to interfere with the binding of human PCSK9 to human LDLR, providing measures of both potency (IC50) and efficacy (Amax).
Human PCSK9 Alexa Fluor 647
Human LDLR extracellular domain-Europium Kryptate
Proxi plate-low volume assay plate (PerkinElmer #6008280)
Greiner V-bottom (Greiner BioOne #781280)
Assay Buffer • 20 mM HEPES, pH 7.5 • 150 mM NaCl • 1 mM CaCl2 • 0.01% v/v Tween20 • 0.01% w/v BSA
A master compound plate was prepared in a Greiner V bottom plate by diluting compounds of the disclosure in dimethylsulfoxide to the correct concentration for the desired top concentration based on the desired final concentration: for a 30 uM final concentration the master plate concentration is 1.5 mM (68 uL DMSO+12 uL 10 mM of a compound of the disclosure), for a 10 uM final concentration the master plate concentration is 0.5 mM (76 uL DMSO+4 uL 10 mM of a compound of the disclosure), for a 3 uM final concentration the master plate concentration is 150 uM (69 uL DMSO+1 uL 10 mM of a compound of the disclosure). These solutions were pipetted into columns 1 and 11 of the compound plate. Threefold serial dilutions were generated in columns 2-10 and 12-20 of the compound plate by transferring 10 uL into 20 uL of DMSO. Columns 21 and 22 of the compound plate were negative controls containing DMSO alone.
An intermediate plate was generated in a Greiner V bottom plate by transferring 8 uL from each well of the master plate into a corresponding well containing 92 uL of assay buffer and mixing thoroughly.
A Proxi plate-low volume assay plate was used for the assay. To all wells of the plate was added 10 uL of 16 nM Human PCSK9 Alexa Fluor 647, followed by 5 uL from the intermediate plate. For the positive control wells in columns 23 and 24 of the plate, 5 uL of unlabeled human PCSK9 was added at 4 uM in assay buffer containing 8% DMSO. Following a 30 minute incubation, 5 uL of 4 nM Human LDLR extracellular domain-Europium Kryptate was added and the mixture was incubated for an additional 2 hours.
The TR-FRET signal was measured on an EnVision or PheraStar instrument with a 60 ms delay, 330 nm excitation and 665 nm emission (FRET), and 330 nm excitation and 615 nm (Europium). The FRET ratio (FRET/Europium) was used for calculations.
No inhibition (0%) was observed from the wells containing DMSO (Control) in columns 21 and 22 of the compound plate. Full inhibition (100%) was observed from the wells containing 1 uM human PCSK9 (Control) in columns 23 and 24 of the plate. Data is expressed as percent inhibition: (value—0%)/(100%-0%).

Chain of human PCSK9 (Q8NBP7 153-692): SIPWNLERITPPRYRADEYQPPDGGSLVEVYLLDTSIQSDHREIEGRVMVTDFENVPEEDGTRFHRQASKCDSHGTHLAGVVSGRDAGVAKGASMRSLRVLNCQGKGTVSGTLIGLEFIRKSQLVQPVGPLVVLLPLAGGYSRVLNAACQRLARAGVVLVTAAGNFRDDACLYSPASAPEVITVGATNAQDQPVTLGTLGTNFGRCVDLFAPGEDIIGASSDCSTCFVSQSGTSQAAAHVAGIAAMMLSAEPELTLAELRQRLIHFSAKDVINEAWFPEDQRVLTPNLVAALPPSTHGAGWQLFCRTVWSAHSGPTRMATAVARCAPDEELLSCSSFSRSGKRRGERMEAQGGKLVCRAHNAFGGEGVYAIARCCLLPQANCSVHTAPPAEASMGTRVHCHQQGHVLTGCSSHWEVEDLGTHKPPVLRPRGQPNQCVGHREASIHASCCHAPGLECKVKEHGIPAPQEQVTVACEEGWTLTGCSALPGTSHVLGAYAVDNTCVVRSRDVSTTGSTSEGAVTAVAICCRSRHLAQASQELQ
Chain of human PCSK9 (Q8NBP7 31-152 partner limits assumed): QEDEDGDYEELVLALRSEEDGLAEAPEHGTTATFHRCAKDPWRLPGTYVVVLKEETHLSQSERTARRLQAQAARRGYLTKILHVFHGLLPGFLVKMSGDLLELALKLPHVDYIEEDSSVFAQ

| Structure (SMILES) | IC50 [nM] | Max % inhibition [%] |
| --- | --- | --- |
| C[C@H]1C(=O)N[C@@H](CO)C(=O)N[C@@]2(Cc3ccc(Cl)cc3)CCCN(C2)C(=O)[C@H](Cc2ccccn2)CC(=O)N1Cc1ccc(Cl)cc1Oc1ccc(-c2cnc(CN3CCCC3)n2C)cc1 [Compound 1, (3R,7S,10S,13R)-6-(4-Chloro-2-(4-(1-methyl-2-(pyrrolidin-1-ylmethyl)-1H-imidazol-5-yl)phenoxy)benzyl)-13-(4-chlorobenzyl)-10-(hydroxymethyl)-7-methyl-3-(pyridin-2-ylmethyl)-1,6,9,12-tetraazabicyclo[11.3.1]heptadecane-2,5,8,11-tetraone] | 0.562 | 103.2 |
| COC[C@@H]1NC(=O)[C@H](C)N(Cc2ccc(Cl)cc2Oc2ccc(-c3cnc(CN(C)C)n3C)cc2)C(=O)C[C@@H](CC(F)(F)F)C(=O)N2CCC[C@@](Cc3ccc(Cl)cc3)(C2)NC1=O [Compound 2, (3S, 7S, 10S, 13R)-6-(4-chloro-2-(4-(2-((dimethylamino)methyl)-1-methyl-1H-imidazol-5-yl)phenoxy)benzyl)-13-(4-chlorobenzyl)-10-(methoxymethyl)-7-methyl-3-(2,2,2-trifluoroethyl)-1,6,9,12-tetraazabicyclo[11.3.1]heptadecane-2,5,8,11-tetraone] | 0.847 | 112.5 |
| COC[C@@H]1NC(=O)[C@H](C)N(Cc2c(F)cc(Cl)cc2Oc2ccc(-c3cnc(CN(C)C)n3C)cc2)C(=O)C[C@@H](Cc2cccc[n+]2[O-])C(=O)N2CCC[C@@](Cc3ccc(Cl)cc3)(C2)N(C)C1=O [Compound 3, 2-(((3R, 7S, 10S, 13R)-6-(4-chloro-2-(4-(2-((dimethylamino)methyl)-1-methyl-1H-imidazol-5-yl)phenoxy)-6-fluorobenzyl)-13-(4-chlorobenzyl)-10-(methoxymethyl)-7,12-dimethyl-2,5,8,11-tetraoxo-1,6,9,12-tetraazabicyclo[11.3.1]heptadecan-3-yl)methyl)pyridine 1-oxide] | 0.452 | 113.9 |
| COC[C@@H]1NC(=O)[C@H](C)N(Cc2ccc(Cl)cc2Oc2ccc(-c3cnc(CN(C)C)n3C)cc2)C(=O)C[C@@H](Cc2cccc(C)n2)C(=O)N2CCC[C@@](Cc3ccc(Cl)cc3)(C2)NC1=O [Compound 4, (3R,7S,10S,13R)-6-(4-Chloro-2-(4-(2-((dimethylamino)methyl)-1-methyl-1H-imidazol-5-yl)phenoxy)benzyl)-13-(4-chlorobenzyl)-10-(methoxymethyl)-7-methyl-3-((6-methylpyridin-2-yl)methyl)-1,6,9,12-tetraazabicyclo[11.3.1]heptadecane-2,5,8,11-tetraone] | 0.558 | 106.4 |
| C[C@H]1C(=O)N[C@@H](CO)C(=O)N[C@@]2(Cc3ccc(Cl)cc3)CCCN(C2)C(=O)[C@H](CC(F)(F)F)CC(=O)N1Cc1c(F)cc(Cl)cc1Oc1ccc(-c2cnc(CNC3CCC3)n2C)cc1 [Compound 5, (3S, 7S, 10S, 13R)-6-(4-chloro-2-(4-(2-((cyclobutylamino)methyl)-1-methyl-1H-imidazol-5-yl)phenoxy)-6-fluorobenzyl)-13-(4-chlorobenzyl)-10-(hydroxymethyl)-7-methyl-3-(2,2,2-trifluoroethyl)-1,6,9,12-tetraazabicyclo[11.3.1]heptadecane-2,5,8,11-tetraone] | 0.4 | 101.9 |
| COC[C@@H]1NC(=O)[C@H](C)N(Cc2ccc(Cl)cc2Oc2ccc(-c3cnc(CNC(C)(C)C)n3C)cc2)C(=O)C[C@@H](CC(F)(F)F)C(=O)N2CCC[C@@](Cc3ccc(Cl)cc3)(C2)NC1=O [Compound 6, (3S, 7S, 10S, 13R)-6-(2-(4-(2-((tert-butylamino)methyl)-1-methyl-1H-imidazol-5-yl)phenoxy)-4-chlorobenzyl)-13-(4-chlorobenzyl)-10-(methoxymethyl)-7-methyl-3-(2,2,2-trifluoroethyl)-1,6,9,12-tetraazabicyclo[11.3.1]heptadecane-2,5,8,11-tetraone] | 0.956 | 119.9 |
| Cc1c(CN(C)C)ncn1-c1ccc(Oc2cc(Cl)ccc2CN2C(=O)C[C@@H]([C@@H]3CCc4ccccc43)C(=O)N3CCC[C@@](Cc4ccc(Cl)cc4)(C3)NC(=O)[C@H](CO)NC(=O)[C@@H]2C)cc1 [Compound 7, (3S, 7S, 10S, 13R)-6-(4-chloro-2-(4-(4-((dimethylamino)methyl)-5-methyl-1H-imidazol-1-yl)phenoxy)benzyl)-13-(4-chlorobenzyl)-3-((S)-2,3-dihydro-1H-inden-1-yl)-10-(hydroxymethyl)-7-methyl-1,6,9,12-tetraazabicyclo[11.3.1]heptadecane-2,5,8,11-tetraone] | 0.401 | 107.3 |
| COC[C@@H]1NC(=O)[C@H](C)N(Cc2c(F)cc(Cl)cc2Oc2ccc(-c3cnc(CN(C)C)n3C)nc2)C(=O)C[C@@H](CC(F)(F)F)C(=O)N2CCC[C@@](Cc3ccc(Cl)cc3)(C2)NC1=O [Compound 8] | 0.465 | 104.7 |
| COC[C@@H]1NC(=O)[C@H](C)N(Cc2ccc(Cl)cc2Oc2ccc(-c3cnc(CN(C)C)n3C)cc2)C(=O)C[C@@H](CC(F)(F)F)C(=O)N2CCC[C@@](Cc3ccc(Cl)cc3)(C2)N(C)C1=O [Compound 9, (3S, 7S, 10S, 13R)-6-(4-chloro-2-(4-(2-((dimethylamino)methyl)-1-methyl-1H-imidazol-5-yl)phenoxy)benzyl)-13-(4-chlorobenzyl)-10-(methoxymethyl)-7,12-dimethyl-3-(2,2,2-trifluoroethyl)-1,6,9,12-tetraazabicyclo[11.3.1]heptadecane-2,5,8,11-tetraone] | 0.22 | 111.3 |
| C[C@H]1C(=O)N[C@@H](CO)C(=O)N[C@@]2(Cc3ccc(Cl)cc3)CCCN(C2)C(=O)[C@H](CC2CC2)CC(=O)N1Cc1c(F)cc(Cl)cc1Oc1ccc(-c2cnc(CN3CCCC3)n2C)cc1 [Compound 10, (3R, 7S, 10S, 13R)-6-(4-chloro-2-fluoro-6-(4-(1-methyl-2-(pyrrolidin-1-ylmethyl)-1H-imidazol-5-yl)phenoxy)benzyl)-13-(4-chlorobenzyl)-3-(cyclopropylmethyl)-10-(hydroxymethyl)-7-methyl-1,6,9,12-tetraazabicyclo[11.3.1]heptadecane-2,5,8,11-tetraone] | 0.152 | 115.5 |
| C[C@H]1C(=O)N[C@@H](CO)C(=O)N[C@@]2(Cc3ccc(Cl)cc3)CCCN(C2)C(=O)[C@H](Cc2ccccc2)CC(=O)N1Cc1c(F)cc(Cl)cc1Oc1ccc(-c2cnc(CN(C)C)n2C)cc1 [Compound 11, (3R, 7S, 10S, 13R)-3-benzyl-6-(4-chloro-2-(4-(2-((dimethylamino)methyl)-1-methyl-1H-imidazol-5-yl)phenoxy)-6-fluorobenzyl)-13-(4-chlorobenzyl)-10-(hydroxymethyl)-7-methyl-1,6,9,12-tetraazabicyclo[11.3.11]-heptadecane-2,5,8,11-tetraone] | 0.351 | 110.0 |
